The values that follow are results of earlier work, collected in patent US8557301B2, “Oral rehydration composition” (Drip Drop, Inc., priority 2011, dated 2013).

This data set relates to net sodium and water absorption.

Regarding `O=C(CO)[C@@H](O)[C@H](O)[C@H](O)CO` [fructose], the “effect on potassium transport” value is “stimulates potassium absorption”. Besides, the “net sodium and water absorption stimulated, as much as glucose” value (relative to glucose) is on record as 66-100%.
